Some results are limits rather than exact numbers.

The target of this test is T1, human Cot/Tpl2 kinase (Homo sapiens, UniProt P41279).
T1 construct: human Cot/Tpl2 kinase construct encoding residues 30-398; 6His (N); made in house; host or cells: Sf9 insect cells, baculovirus system (BD Biosciences)
T1 sequence (P41279 30-398): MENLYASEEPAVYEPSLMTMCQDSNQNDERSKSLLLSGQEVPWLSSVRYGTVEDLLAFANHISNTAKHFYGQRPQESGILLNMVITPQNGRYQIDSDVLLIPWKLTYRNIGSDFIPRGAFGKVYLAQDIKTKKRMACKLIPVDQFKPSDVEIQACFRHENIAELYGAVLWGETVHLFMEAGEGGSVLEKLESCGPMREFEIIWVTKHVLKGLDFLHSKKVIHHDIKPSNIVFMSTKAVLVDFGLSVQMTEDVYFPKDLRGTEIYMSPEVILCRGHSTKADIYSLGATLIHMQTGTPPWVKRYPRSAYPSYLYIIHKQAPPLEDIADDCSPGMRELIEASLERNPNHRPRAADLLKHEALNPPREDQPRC
The experiment in a line: Tpl2/Cot kinase assay: GST-MEK1 phosphorylation detected by ELISA (DELFIA Eu). In kind it is biochemical. The conditions noted are these: 0.4 nM Tpl2, 35 nM GST-MEK1, 50 uM ATP, 1 h at 30° C. The protocol: Sf9 cells expressing the kinase were lysed in 50 mM NaPhosphate pH=8; 300 mM NaCl; 5 mM imidazole; 0.1 mM EGTA; 25 mM beta-glycerophosphate; 1% TX-100, 1% glycerol; 6 mM beta-mercaptoethanol and protease inhibitors. The lysate was clarified by centrifugation and was loaded onto a Ni-Sepharose column. The column was washed with 50 mM NaPhosphate pH=8; 300 mM NaCl; 15 mM imidazole; 1% glycerol; and 6 mM beta-mercaptoethanol. His-Tpl2 was eluted with 50 mM NaPhosphate pH=8; 300 mM NaCl; 250 mM imidazole; 1% glycerol; and 6 mM beta-mercaptoethanol. The eluted protein was further purified by size exclusion chromatography. Fractions corresponding to monomeric Tpl2 were then used in the assay.
Tpl2/Cot activity was directly assayed using GST-MEK1 as a substrate. GST-MEK1 phosphorylation on serine residues 217 and 221 was detected by ELISA. 0.4 nM Tpl2 was incubated with 35 nM GST-MEK1 in a kinase reaction buffer containing 20 mM MOPS pH=7.2; 50 uM ATP; 20 mM MgCl2; 1 mM DTT; 25 mM β-glycerophosphate; 5 mM EGTA; and 1 mM sodium orthovanadate for 1 h at 30° C. The compounds of the inventions solubilized in 100% DMSO were pre-diluted in assay buffer so that the final concentration of DMSO in the reaction was 1%. The kinase reaction was carried out in 100 ul volume on 96 well plates. The kinase reaction was then stopped with the addition of 100 mM EDTA. […] After a 1 hour incubation at room temperature, the detection plate was washed 4 times with TBST (TBS+0.05% Tween 20) and then incubated for another hour at room temperature with anti phospho-MEK1 antibody (Cell Signaling) 1:1000 in 10 mM MOPS 7.5; 150 mM NaCl; 0.05% Tween 20; 0.1% Gelatin; 0.02% NaN3; and 1% BSA. The detection plate was washed again and incubated for 30 min with DELFIA Europium (Eu) labeled goat anti-rabbit IgG (Perkin-Elmer), 1:4000 in the same buffer used for the primary incubation. After a final wash, Eu detection solution was added to each well and the Eu signal was measured in a Wallac Victor^2 Multilabel Counter. IC50 calculations were performed using the XLfit software package (IDBS, Guildford, UK).
For orientation: An ELISA detects its analyte on a solid surface through an enzyme-linked reagent.
Take “1-[(3-chloro-4-fluorophenyl)amino]-5-[(1E)-3-hydroxyprop-1-en-1-yl]-7-[(1H-imidazol-5-ylmethyl)amino]-2-naphthonitrile [Example 313]”: 230 nM corresponded to half-maximal inhibition (IC50).

For “4-(3-Chloro-4-fluoro-phenylamino)-6-[(tetrahydro-furan-2-ylmethyl)-amino]-quinoline-3-carbonitrile [Example 41]”, the IC50 (usually the concentration that inhibits the measured activity by half) worked out at 2200 nM. As for `N#Cc1cnc2ccc(NC(=O)c3ccccc3)cc2c1Nc1ccc(F)c(Cl)c1` [Example 1, N-[4-(3-Chloro-4-fluoro-phenylamino)-3-cyano-quinolin-6-yl]-benzamide], the figure is 11000 nM; as for `N#Cc1cnc2ccc(NC(=O)c3cccnc3)cc2c1Nc1ccc(F)c(Cl)c1` [Example 2, N-[4-(3-Chloro-4-fluoro-phenylamino)-3-cyano-quinolin-6-yl]-nicotinamide], 23900 nM; as for `N#Cc1cnc2ccc(NCc3ccco3)cc2c1Nc1ccc(F)c(Cl)c1` [Example 3, 4-(3-Chloro-4-fluoro-phenylamino)-6-[(furan-2-ylmethyl)-amino]-quinoline-3-carbonitrile], 240 nM. `N#Cc1cnc2ccc(NCc3ccoc3)cc2c1Nc1ccc(F)c(Cl)c1` [Example 5, 4-(3-Chloro-4-fluoro-phenylamino)-6-[(furan-3-ylmethyl)-amino]-quinoline-3-carbonitrile] registered an IC50 of 370 nM.

The compound `N#Cc1cnc2ccc(NCc3cccc([N+](=O)[O-])c3)cc2c1Nc1ccc(F)c(Cl)c1` [Example 6, 4-(3-Chloro-4-fluoro-phenylamino)-6-(3-nitro-benzylamino)-quinoline-3-carbonitrile] came in with an IC50 of 200 nM.

Take `Cn1c(CNc2ccc3ncc(C#N)c(Nc4ccc(F)c(Cl)c4)c3c2)nc2ccccc21` [Example 7, 4-(3-Chloro-4-fluoro-phenylamino)-6-[(1-methyl-1H-benzoimidazol-2-ylmethyl)-amino]-quinoline-3-carbonitrile]: the IC50 came out at 18 nM. On to `N#Cc1cnc2ccc(NCc3nccs3)cc2c1Nc1ccc(F)c(Cl)c1` [Example 8, 4-(3-Chloro-4-fluoro-phenylamino)-6-[(thiazol-2-ylmethyl)-amino]-quinoline-3-carbonitrile], for which the IC50 was determined as 31 nM.

Take `N#Cc1cnc2ccc(NCc3ccc(CO)o3)cc2c1Nc1ccc(F)c(Cl)c1` [Example 9, 4-(3-Chloro-4-fluoro-phenylamino)-6-[(5-hydroxymethyl-furan-2-ylmethyl)-amino]-quinoline-3-carbonitrile]: the IC50 was 211 nM. `N#Cc1cccc(CNc2ccc3ncc(C#N)c(Nc4ccc(F)c(Cl)c4)c3c2)c1` [Example 10, 4-(3-Chloro-4-fluoro-phenylamino)-6-(3-cyano-benzylamino)-quinoline-3-carbonitrile] showed an IC50 of 200 nM. The compound `N#Cc1cnc2ccc(NCc3ccc([N+](=O)[O-])o3)cc2c1Nc1ccc(F)c(Cl)c1` [Example 11, 4-(3-Chloro-4-fluoro-phenylamino)-6-[(5-nitro-furan-2-ylmethyl)-amino]-quinoline-3-carbonitrile] gave a half-maximal inhibitory concentration (IC50) of 123 nM. In the case of `N#Cc1cnc2ccc(NCc3ccc(-n4ccnc4)cc3)cc2c1Nc1ccc(F)c(Cl)c1` [Example 12, 4-(3-Chloro-4-fluoro-phenylamino)-6-(4-imidazol-1-yl-benzylamino)-quinoline-3-carbonitrile], the IC50 came out at 1300 nM.

For `N#Cc1cnc2ccc(NCc3ncc[nH]3)cc2c1Nc1ccc(F)c(Cl)c1` [Example 13, 4-(3-Chloro-4-fluoro-phenylamino)-6-[(1H-imidazol-2-ylmethyl)-amino]-quinoline-3-carbonitrile], the IC50 is 30 nM. In the case of `N#Cc1cnc2ccc(NCc3cccc(N)c3)cc2c1Nc1ccc(F)c(Cl)c1` [Example 14, 6-(3-Amino-benzylamino)-4-(3-chloro-4-fluoro-phenylamino)-quinoline-3-carbonitrile], the IC50 came to 140 nM.

`Cc1[nH]cnc1CNc1ccc2ncc(C#N)c(Nc3ccc(F)c(Cl)c3)c2c1` [Example 15, 4-(3-Chloro-4-fluoro-phenylamino)-6-[(5-methyl-3H-imidazol-4-ylmethyl)-amino]-quinoline-3-carbonitrile]: the IC50 was 15 nM.

`CC(=O)Nc1ccc(CNc2ccc3ncc(C#N)c(Nc4ccc(F)c(Cl)c4)c3c2)cc1` [Example 16, N-(4-{[4-(3-Chloro-4-fluoro-phenylamino)-3-cyano-quinolin-6-ylamino]-methyl}-phenyl)-acetamide] registered a 50% inhibitory concentration (IC50) of 227 nM. As to `N#Cc1cnc2ccc(NCc3ccc([N+](=O)[O-])cc3)cc2c1Nc1ccc(F)c(Cl)c1` [Example 17, 4-(3-Chloro-4-fluoro-phenylamino)-6-(4-nitro-benzylamino)-quinoline-3-carbonitrile], the IC50 turned out to be 190 nM. The compound `CS(=O)(=O)Nc1cccc(CNc2ccc3ncc(C#N)c(Nc4ccc(F)c(Cl)c4)c3c2)c1` [Example 18, N-(3-{[4-(3-Chloro-4-fluoro-phenylamino)-3-cyano-quinolin-6-ylamino]-methyl}-phenyl)-methanesulfonamide] displayed a 50% inhibitory concentration (IC50) of 280 nM.

`N#Cc1ccc(CNc2ccc3ncc(C#N)c(Nc4ccc(F)c(Cl)c4)c3c2)cc1` [Example 19, 4-(3-Chloro-4-fluoro-phenylamino)-6-(4-cyano-benzylamino)-quinoline-3-carbonitrile] had a 50% inhibitory concentration (IC50) of 590 nM.

`CN(C)c1ccc(CNc2ccc3ncc(C#N)c(Nc4ccc(F)c(Cl)c4)c3c2)c(F)c1C#N` [Example 20, 4-(3-Chloro-4-fluoro-phenylamino)-6-(3-cyano-4-dimethylamino-2-fluoro-benzylamino)-quinoline-3-carbonitrile] returned an IC50 of 610 nM. Regarding `N#Cc1ccccc1CNc1ccc2ncc(C#N)c(Nc3ccc(F)c(Cl)c3)c2c1` [Example 21, 4-(3-Chloro-4-fluoro-phenylamino)-6-(2-cyano-benzylamino)-quinoline-3-carbonitrile], half-maximal inhibition (IC50) was put at 130 nM. On to `N#Cc1cnc2ccc(NCc3nccn3CCN3CCOCC3)cc2c1Nc1ccc(F)c(Cl)c1` [Example 22, 4-(3-Chloro-4-fluoro-phenylamino)-6-{[1-(2-morpholin-4-yl-ethyl)-1H-imidazol-2-ylmethyl]-amino}-quinoline-3-carbonitrile], for which half-maximal inhibition (IC50) was put at 68 nM. The compound `CCc1nc(C)c(CNc2ccc3ncc(C#N)c(Nc4ccc(F)c(Cl)c4)c3c2)[nH]1` [Example 23, 4-(3-Chloro-4-fluoro-phenylamino)-6-[(2-ethyl-5-methyl-3H-imidazol-4-ylmethyl)-amino]-quinoline-3-carbonitrile] displayed an IC50 of 640 nM. For the compound `COCCOc1ccc(CNc2ccc3ncc(C#N)c(Nc4ccc(F)c(Cl)c4)c3c2)cc1Br` [Example 24, 6-[3-Bromo-4-(2-methoxy-ethoxy)-benzylamino]-4-(3-chloro-4-fluoro-phenylamino)-quinoline-3-carbonitrile], the concentration for half-maximal inhibition (IC50) was 380 nM.

In turn, `COCCOc1ccc(CNc2ccc3ncc(C#N)c(Nc4ccc(F)c(Cl)c4)c3c2)cc1C#N` [Example 25, 4-(3-Chloro-4-fluoro-phenylamino)-6-[3-cyano-4-(2-methoxy-ethoxy)-benzylamino]-quinoline-3-carbonitrile] had an IC50 of 82 nM. As for `CC(C)(C)OC(=O)COc1ccc(CNc2ccc3ncc(C#N)c(Nc4ccc(F)c(Cl)c4)c3c2)cc1Br` [Example 26, (2-Bromo-4-{[4-(3-chloro-4-fluoro-phenylamino)-3-cyano-quinolin-6-ylamino]-methyl}-phenoxy)-acetic acid tert-butyl ester], the figure is above 40000 nM; as for `N#Cc1cnc2ccc(NCc3cc[nH]n3)cc2c1Nc1ccc(F)c(Cl)c1` [Example 27, 4-(3-Chloro-4-fluoro-phenylamino)-6-[(1H-pyrazol-3-ylmethyl)-amino]-quinoline-3-carbonitrile], 74 nM. Consider `COc1cc(NCc2cccnc2)cc2c(Nc3ccc(F)c(Cl)c3)c(C#N)cnc12` [Example 28, 4-(3-Chloro-4-fluoro-phenylamino)-8-methoxy-6-[(pyridin-3-ylmethyl)-amino]-quinoline-3-carbonitrile], for which half-maximal inhibition (IC50) required 1100 nM. Regarding `COc1cc(NCCN2CCOCC2)cc2c(Nc3ccc(F)c(Cl)c3)c(C#N)cnc12` [Example 29, 4-(3-Chloro-4-fluoro-phenylamino)-8-methoxy-6-(2-morpholin-4-yl-ethylamino)-quinoline-3-carbonitrile], it took 5200 nM to reach half-maximal inhibition (IC50).

Values taken from patent US20060264460A1 (Wyeth, priority 2005, published 2006).
